Results as given in patent publication US8344003B2, “2-pyridinecarboxamide derivatives” (MSD K. K., priority 2003, dated 2013).

Biological target: T1, recombinant human liver GK (Homo sapiens, UniProt P35557)
T1 construct: made in house; host or cells: E. coli
T1 sequence (P35557 1-466 isoform P35557-2): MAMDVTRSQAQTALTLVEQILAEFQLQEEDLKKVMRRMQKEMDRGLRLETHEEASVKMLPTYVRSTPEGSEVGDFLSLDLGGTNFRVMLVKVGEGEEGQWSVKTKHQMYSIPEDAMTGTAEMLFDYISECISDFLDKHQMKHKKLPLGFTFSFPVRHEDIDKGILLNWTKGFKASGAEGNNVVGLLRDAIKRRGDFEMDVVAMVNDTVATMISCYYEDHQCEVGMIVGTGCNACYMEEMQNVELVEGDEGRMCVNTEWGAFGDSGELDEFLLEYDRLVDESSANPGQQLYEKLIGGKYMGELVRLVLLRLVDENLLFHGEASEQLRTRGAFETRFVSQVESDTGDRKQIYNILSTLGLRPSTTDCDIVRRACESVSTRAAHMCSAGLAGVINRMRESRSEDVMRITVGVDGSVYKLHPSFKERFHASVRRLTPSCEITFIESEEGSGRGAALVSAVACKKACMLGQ
Assay: glucokinase (GK) activation assay, Thio-NADH generation via reporter enzyme G6PDH, absorbance at 405 nm
Format: biochemical
Settings: final glucose concentration 2.5 mM, 30° C.; for EC50: GK activation; for Emax: OD value of DMSO control regarded as 100%
Method: The glucokinase activity can be determined without directly measuring glucose-6-phosphate by measuring the amount of Thio-NADH generated during the production of phosphogluconolactone from glucose-6-phosphate by a reporter enzyme glucose-6-phosphate dehydrogenase. Thus, the degree of the glucokinase activity can be determined.
The recombinant human liver GK used in this assay expressed as a FLAG fusion protein in E. coli, was purified on […] M2 AFFINITY GEL (Sigma).
Assay was carried out at 30° C. in a 96-well plate. In the plate was distributed 69 μl each of assay buffer (25 mM Hepes Buffer: pH=7.2, 2 mM MgCl2, 1 mM ATP, 0.5 mM TNAD, 1 mM dithiothreitol), to which was added 1 μl of a DMSO solution of the compound or DMSO as control. Then, 20 μl of pre-ice-cooled enzyme mixture (FLAG-GK, 20 U/ml G6PDH) was distributed thereto, to which was added 10 μl of 25 mM glucose as substrate to initiate the reaction (final glucose concentration=2.5 mM).
FLAG-GK was added so that the increase of absorbance after 5 minutes fell between 0.05 to 0.1 in the presence of 1% DMSO.
The OD values of the respective compounds to be evaluated were measured in the respective concentrations, wherein the OD value of DMSO as control was regarded as 100%. From the OD values at the respective concentrations, Emax (%) and EC50 (μM) were calculated and used as indicators of the GK activation capability of the compounds. According to the above assay, the GK activation capability of the compounds in the present invention was determined.

COc1ccc(Sc2ccc(Sc3nnc[nH]3)nc2C(=O)Nc2nccs2)cc1 [Production Example 1]
EC50: 50 nM
Emax: 997%

Cc1ccc(Sc2ccc(Sc3nnc[nH]3)nc2C(=O)Nc2nccs2)cn1 [Production Example 30, 3-(6-methyl-pyridine-3-yl-sulfanyl)-6-(4H-[1,2,4]triazole-3-yl-sulfanyl)-N-(thiazole-2-yl)-2-pyridine carboxamide]
EC50: 120 nM
Emax: 818%
